Structures are written as SMILES.

Consider 1 compound from publication PMC9224243, “Palmitic Amide Triggers Virus Life Cycle via Enhancing Host Energy Metabolism” (Frontiers in Microbiology, 2022).

The test system of the assay is T1, acetate kinase.
T1 construct: gene ackA; purified recombinant acetate kinase
Nature of the assay: ITC at […]°C ([…] protein, […] compound); also bead pull-down with MS and Western blot, and increased activity of the purified enzyme at […]. It counts as binding, Geobacillus sp. E263. (In general: A western blot detects proteins with antibodies after separation by electrophoresis.)

As usually defined, the Kd is the equilibrium constant for the complex coming apart. Low readings indicate a tighter complex, high ones a looser complex. Compound `CCCCCCCCCCCCCCCC(N)=O` [palmitic amide] gave an equilibrium dissociation constant (Kd) of 13.2 ± 28.1 µM.
